From the supplement of paper PMC11208160

Assay: recombinant barcode read abundance after kanamycin selection (control-corrected) (log10(CPM+1)); higher = more efficient recombination; sequences stand for … in AGTGCAGAGAAAATCGGCCAGTTTTCTCTGCCTGCAGTCCGCATGCCGT…ATTTATGCAGCGGACTGCCTTTCTCCCAAAGTGATAAACCGGACAGTATCATGGACCGGTTTTCCCGGTAATCCGTATTTGCAAGGTTGGTTTCACT; site = the 11-nt target
How it was run: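 In E. coli, a pooled library matched targets to IS621 bridge RNA target-binding loops and was introduced alongside a donor plasmid. Cells went onto chloramphenicol/ampicillin/kanamycin with 0.1 mM IPTG or onto chloramphenicol/ampicillin LB agar as control, in duplicate. Recombination efficiency, from recombinant-junction barcodes as counts per million, is averaged and control-corrected. It is reported as log10(CPM+1).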

Row | Sequence | recombinant barcode read abundance (log10)
1 | ATGCTTTAGTGGGTTCTAACCTGTTGCCTAG [ATGCTTTCTAG_LTGcore_AG_RTGcore_CT] (site ATGCTTTCTAG) (LTG core: AG, RTG core: CT) | 0.0782
2 | ATGCTTTCCTGGGTTCTAACCTGTTGCCTAG [ATGCTTTCTAG_LTGcore_CC_RTGcore_CT] (site ATGCTTTCTAG) (LTG core: CC, RTG core: CT) | 0.0734
3 | ATGCTTTCCTGGGTTCTAACCTGTTGCCTGG [ATGCTTTCTAG_LTGcore_CC_RTGcore_CC] (site ATGCTTTCTAG) (LTG core: CC, RTG core: CC) | 0.0978
4 | ATGCTTTCGTGGGTTCTAACCTGTTGCCTAG [ATGCTTTCTAG_LTGcore_CG_RTGcore_CT] (site ATGCTTTCTAG) (LTG core: CG, RTG core: CT) | 0.0216
5 | ATGCTTTCTTGGGTTCTAACCTGTTGCCTAC [ATGCTTTCTAG_LTGcore_CT_RTGcore_GT] (site ATGCTTTCTAG) (LTG core: CT, RTG core: GT) | 0.191
6 | ATGCTTTCTTGGGTTCTAACCTGTTGCCTTG [ATGCTTTCTAG_LTGcore_CT_RTGcore_CA] (site ATGCTTTCTAG) (LTG core: CT, RTG core: CA) | 0.0598
7 | ATGCTTTGATGGGTTCTAACCTGTTGCCTAG [ATGCTTTCTAG_LTGcore_GA_RTGcore_CT] (site ATGCTTTCTAG) (LTG core: GA, RTG core: CT) | 0.229
8 | ATGCTTTGATGGGTTCTAACCTGTTGCCTTC [ATGCTTTCTAG_LTGcore_GA_RTGcore_GA] (site ATGCTTTCTAG) (LTG core: GA, RTG core: GA) | 0.0368
9 | ATGCTTTGCTGGGTTCTAACCTGTTGCCTGC [ATGCTTTCTAG_LTGcore_GC_RTGcore_GC] (site ATGCTTTCTAG) (LTG core: GC, RTG core: GC) | 0.0848
10 | ATGCTTTTATGGGTTCTAACCTGTTGCCTAG [ATGCTTTCTAG_LTGcore_TA_RTGcore_CT] (site ATGCTTTCTAG) (LTG core: TA, RTG core: CT) | 0.238
11 | ATGCTTTTATGGGTTCTAACCTGTTGCCTTA [ATGCTTTCTAG_LTGcore_TA_RTGcore_TA] (site ATGCTTTCTAG) (LTG core: TA, RTG core: TA) | 0.232
12 | ATGCTTTTGTGGGTTCTAACCTGTTGCCTAG [ATGCTTTCTAG_LTGcore_TG_RTGcore_CT] (site ATGCTTTCTAG) (LTG core: TG, RTG core: CT) | 0.0287
13 | ATGCTTTTTTGGGTTCTAACCTGTTGCCTAA [ATGCTTTCTAG_LTGcore_TT_RTGcore_TT] (site ATGCTTTCTAG) (LTG core: TT, RTG core: TT) | 0.0151
14 | ATGTCCCAGTGGGTTCTAACCTGTTGCTCCT [ATGTCCCCTGA_LTGcore_AG_RTGcore_AG] (site ATGTCCCCTGA) (LTG core: AG, RTG core: AG) | 0.0318
15 | ATGTCCCCGTGGGTTCTAACCTGTTGCTCCG [ATGTCCCCTGA_LTGcore_CG_RTGcore_CG] (site ATGTCCCCTGA) (LTG core: CG, RTG core: CG) | 0.163
16 | ATGTCCCCTTGGGTTCTAACCTGTTGCTCAC [ATGTCCCCTGA_LTGcore_CT_RTGcore_GT] (site ATGTCCCCTGA) (LTG core: CT, RTG core: GT) | 0.0456
17 | ATGTCCCCTTGGGTTCTAACCTGTTGCTCCA [ATGTCCCCTGA_LTGcore_CT_RTGcore_TG] (site ATGTCCCCTGA) (LTG core: CT, RTG core: TG) | 0.0151
18 | ATGTCCCCTTGGGTTCTAACCTGTTGCTCCT [ATGTCCCCTGA_LTGcore_CT_RTGcore_AG] (site ATGTCCCCTGA) (LTG core: CT, RTG core: AG) | 0.205
19 | ATGTCCCCTTGGGTTCTAACCTGTTGCTCTG [ATGTCCCCTGA_LTGcore_CT_RTGcore_CA] (site ATGTCCCCTGA) (LTG core: CT, RTG core: CA) | 0.00868
